Measurements as given in the supplement of paper PMC10883282.

Tests used:
Assay in all cases: relative viability vs DMSO control (72 h) (fraction); higher = more viable cells
VA-ES-BJ = system: VA-ES-BJ
How it was run: (§1)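 ATPLite readings, expressed as percent growth and averaged over up to triplicate wells, provided relative viability. Before reading, sarcoma cell lines seeded in 384-well plates to reach 80–90% confluence received 2.5 µl of serially diluted compound after 24 h, from source plates of 10 mM to 0.0002 mM. Plates were held 72 h at 37 °C, 5% CO2, with 0.1% DMSO as vehicle and a 5 µM positive control. The data were rescaled to 1 for full and 0 for none.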

SK-LMS-1 = system: SK-LMS-1
How it was run: as §1

SW1353 = system: SW1353
How it was run: as §1

SW684 = system: SW684
How it was run: as §1

A204 = system: A204
How it was run: as §1

MES-SA = system: MES-SA
How it was run: as §1

HT1080 = system: HT1080
How it was run: as §1

G401 = system: G401
How it was run: as §1

SYO-1 = system: SYO-1
How it was run: as §1

SW872 = system: SW872
How it was run: as §1

KHOS-NP = system: KHOS-NP
How it was run: as §1

HS729 = system: HS729
How it was run: as §1

Cc1cc(F)c(C(=O)Nc2cccc(-c3nncn3C(C)C)n2)cc1-n1cnc(C2CC2)c1 [Selonsertib]
Settings | relative viability
A204, 0.00017 µM | 1.07
A204, 0.00051 µM | 1.02
A204, 0.00152 µM | 1.03
A204, 0.00457 µM | 1.09
A204, 0.01372 µM | 1.07
A204, 0.04115 µM | 1.08
A204, 0.1235 µM | 1.1
A204, 0.3704 µM | 1.07
A204, 1.111 µM | 1.01
A204, 3.333 µM | 0.802
A204, 10 µM | 0.389
G401, 0.00017 µM | 1.02
G401, 0.00051 µM | 0.988
G401, 0.00152 µM | 1.01
G401, 0.00457 µM | 1.01
G401, 0.01372 µM | 0.995
G401, 0.04115 µM | 1.04
G401, 0.1235 µM | 1.01
G401, 0.3704 µM | 0.994
G401, 1.111 µM | 0.979
G401, 3.333 µM | 0.882
G401, 10 µM | 0.684
HS729, 0.00017 µM | 0.914
HS729, 0.00051 µM | 0.917
HS729, 0.00152 µM | 0.92
HS729, 0.00457 µM | 0.973
HS729, 0.01372 µM | 0.936
HS729, 0.04115 µM | 0.942
HS729, 0.1235 µM | 0.888
HS729, 0.3704 µM | 0.933
HS729, 1.111 µM | 0.875
HS729, 3.333 µM | 0.94
HS729, 10 µM | 0.943
HT1080, 0.00017 µM | 1.01
HT1080, 0.00051 µM | 1.04
HT1080, 0.00152 µM | 1.04
HT1080, 0.00457 µM | 1.04
HT1080, 0.01372 µM | 1.05
HT1080, 0.04115 µM | 1.04
HT1080, 0.1235 µM | 1.04
HT1080, 0.3704 µM | 1.03
HT1080, 1.111 µM | 1.08
HT1080, 3.333 µM | 1.09
HT1080, 10 µM | 1.081
KHOS-NP, 0.00017 µM | 1.04
KHOS-NP, 0.00051 µM | 1.05
KHOS-NP, 0.00152 µM | 1.042
KHOS-NP, 0.00457 µM | 1.06
KHOS-NP, 0.01372 µM | 1.06
KHOS-NP, 0.04115 µM | 1.07
KHOS-NP, 0.1235 µM | 1.07
KHOS-NP, 0.3704 µM | 0.911
KHOS-NP, 1.111 µM | 1.06
KHOS-NP, 3.333 µM | 1.02
KHOS-NP, 10 µM | 0.707
MES-SA, 0.00017 µM | 0.887
MES-SA, 0.00051 µM | 0.892
MES-SA, 0.00152 µM | 0.907
MES-SA, 0.00457 µM | 0.893
MES-SA, 0.01372 µM | 0.895
MES-SA, 0.04115 µM | 0.93
MES-SA, 0.1235 µM | 0.928
MES-SA, 0.3704 µM | 0.912
MES-SA, 1.111 µM | 0.87
MES-SA, 3.333 µM | 0.78
MES-SA, 10 µM | 0.368
SK-LMS-1, 0.00017 µM | 1.07
SK-LMS-1, 0.00051 µM | 1.08
SK-LMS-1, 0.00152 µM | 1.08
SK-LMS-1, 0.00457 µM | 1.09
SK-LMS-1, 0.01372 µM | 1.11
SK-LMS-1, 0.04115 µM | 1.09
SK-LMS-1, 0.1235 µM | 1.09
SK-LMS-1, 0.3704 µM | 1.09
SK-LMS-1, 1.111 µM | 1.04
SK-LMS-1, 3.333 µM | 1.05
SK-LMS-1, 10 µM | 0.898
SW684, 0.00017 µM | 1.15
SW684, 0.00051 µM | 1.136
SW684, 0.00152 µM | 1.14
SW684, 0.00457 µM | 1.15
SW684, 0.01372 µM | 1.2
SW684, 0.04115 µM | 1.14
SW684, 0.1235 µM | 1.11
SW684, 0.3704 µM | 1.12
SW684, 1.111 µM | 1.1
SW684, 3.333 µM | 1.13
SW684, 10 µM | 1.012
SW872, 0.00017 µM | 0.995
SW872, 0.00051 µM | 1
SW872, 0.00152 µM | 1.02
SW872, 0.00457 µM | 1.03
SW872, 0.01372 µM | 1.03
SW872, 0.04115 µM | 1.04
SW872, 0.1235 µM | 1.06
SW872, 0.3704 µM | 1.05
SW872, 1.111 µM | 1.08
SW872, 3.333 µM | 1.07
SW872, 10 µM | 1.05
SW1353, 0.00017 µM | 0.962
SW1353, 0.00051 µM | 0.977
SW1353, 0.00152 µM | 0.951
SW1353, 0.00457 µM | 0.95
SW1353, 0.01372 µM | 0.934
SW1353, 0.04115 µM | 0.953
SW1353, 0.1235 µM | 0.968
SW1353, 0.3704 µM | 0.994
SW1353, 1.111 µM | 0.986
SW1353, 3.333 µM | 0.977
SW1353, 10 µM | 0.964
SYO-1, 0.00017 µM | 0.95
SYO-1, 0.00051 µM | 0.947
SYO-1, 0.00152 µM | 0.949
SYO-1, 0.00457 µM | 0.94
SYO-1, 0.01372 µM | 0.95
SYO-1, 0.04115 µM | 0.965
SYO-1, 0.1235 µM | 0.944
SYO-1, 0.3704 µM | 0.921
SYO-1, 1.111 µM | 0.886
SYO-1, 3.333 µM | 0.828
SYO-1, 10 µM | 0.5622
VA-ES-BJ, 0.00017 µM | 0.995
VA-ES-BJ, 0.00051 µM | 0.995
VA-ES-BJ, 0.00152 µM | 1.01
VA-ES-BJ, 0.00457 µM | 0.972
VA-ES-BJ, 0.01372 µM | 0.989
VA-ES-BJ, 0.04115 µM | 0.977
VA-ES-BJ, 0.1235 µM | 0.967
VA-ES-BJ, 0.3704 µM | 0.969
VA-ES-BJ, 1.111 µM | 0.938
VA-ES-BJ, 3.333 µM | 0.918
VA-ES-BJ, 10 µM | 0.848
